The numbers were not newly measured in US20070202050A1, “Pharmaceutical Formulations” (priority 2006, published 2007), which cites them from elsewhere.

SMILES strings stand for the structures.

The conditions of series [1]: topically active steroid.
The subject of series [2] is rhinoviruses.
For series [3], the system named is symptoms associated with chronic nasal congestion.
Series [4] has as its system secretions of natural tear components. Conditions: preclinical testing.

`C[C@@H]1C[C@H]2[C@@H]3CCC4=CC(=O)C=C[C@]4(C)[C@@]3(Cl)[C@@H](O)C[C@]2(C)[C@@]1(OC(=O)c1ccco1)C(=O)CCl` [Mometasone Furoate]: the bioavailability result in series [1] is “not readily bioavailable”.

For the compound `Cc1cc(CCCOc2c(C)cc(-c3noc(C(F)(F)F)n3)cc2C)on1` [Pleconaril, 1,2,4-oxadiazole3-[3,5-Dimethyl-4-[3-(3-methyl-5-isoxazolyl)propoxy]phenyl]-5-(trifluoremethyl)], the “solubility in water / aqueous solvents” value was “insoluble”. Also, the activity against rhinoviruses entry in series [2] is “active against rhinoviruses”. Also, under “for example corn oil and ethanol”, the solubility in liquids entry is recorded as “soluble only in liquids of low polarity”.

Turning to `Oc1cccc(Nc2ncc(F)c(Nc3cccc(O)c3)n2)c1` [R112], in series [3], the “absolute difference over placebo” value is reported as 9%, the “improvement from baseline measurements (prior to drug initiation)” value is given as “up to 38%” and the “relative improvement over placebo” value is listed as “greater than 20%”.

Regarding `O=c1ccn([C@@H]2O[C@H](COP(=O)(O)OP(=O)(O)OP(=O)(O)OP(=O)(O)OC[C@H]3O[C@@H](n4ccc(=O)[nH]c4=O)[C@H](O)[C@@H]3O)[C@@H](O)[C@H]2O)c(=O)[nH]1` [diquafosol], the “effect on secretions of natural tear components” value in series [4] is “increased the secretions of natural tear components”.
